Reference: patent US20110046079A1, “Use of Proton Pump Inhibitors as Drug Delivery Adjuvants” (priority 2008, published 2011)

Columns and labels:
[1] = system: rat gastric corpus mucosa; experiment: Transepithelial drug flux studies (3H-digoxin, 14C-phenytoin, mucosal to serosal) before and after omeprazole or DMSO; assay type: in vitro ADME; conditions: for Post-Omeprazole Flux Value: after 200 μM omeprazole; for Post-Omeprazole Flux Value / Post-DMSO Flux Value: corrected by TLC; for Pre-Omeprazole Flux Value: before 200 μM omeprazole; for % Increase in Flux After DMSO / Post-DMSO Flux Value / Pre-DMSO Flux Value: vehicle control tissue; for Pre-DMSO Flux Value: mean ± SEM
Experimental: Sprague Dawley male rats weighing approximately 400 grams were sacrificed by decapitation and the stomach was quickly removed, cut along the greater curvature, and flushed of luminal contents. The serosal membrane was then stripped from the corpus region and two equal sized pieces of corpus mucosa were mounted in two separate Ussing chambers with exposed tissue areas of 1.13 cm^2. Chambers were connected to 15 mL gas-lift reservoirs filled with un-buffered saline aerated with 100% O2 and bicarbonate-buffered saline aerated with 95% O2/5% CO2 on the mucosal and serosal sides, respectively. Saline temperature was held constant at 37° C. by a jacketed water bath surrounding the reservoirs. 30 minutes at 37° C. was allowed for tissue equilibration. In paired experiments, one tissue served as (vehicle) ‘control’, and the other as omeprazole-treated ‘experimental’.
After 30 minutes of tissue equilibration time in Ussing chambers, dibutyrl cyclic AMP (dBcAMP) (Sigma) was added to a final concentration of 1 mM to the serosal fluid chambers to stimulate acid secretion. […] The addition of the isotope marked the beginning of the flux period. 150 μL or 250 μL samples were taken from the serosal fluid compartment (opposite from which the isotope was added) for liquid scintillation counting (LSC). Samples were initially taken at 30 minute intervals for 90 minutes for the ^14C-phenytoin flux or at 15 minute intervals for 75 minutes for the ^3H-digoxin flux to establish the basal permeability rate (ρmoles/min/cm^2) across the tissue. 200 μM omeprazole (Sigma) (in DMSO) was then added to the mucosal and serosal sides of one chamber and an equivalent amount of DMSO (Sigma) was also added to both sides of the control chamber. Another series of serosal fluid samples were taken for LSC at 15 or 30 minute intervals for the remaining 60 minutes of ^3H-digoxin or ^14C-phenytoin flux experiments, respectfully, to determine flux rate of the radiolabeled drugs after omeprazole addition. In all cases of fluid sampling for liquid scintillation counting, an equal amount of fresh buffered saline was added back to the serosal side to prevent hydrostatic gradients from developing across the tissue. The flux of each isotope (ρmole/min/cm^2) was determined by calculating the linear regression slope of the graph of cpm versus time, and converting cpm to picomoles after determining the specific activity of the drug in the mucosal fluid.
To observe if the omeprazole-induced leak allows for permeation of certain small molecule drugs, ^3H-digoxin was added to the mucosal fluid compartment and saline samples were taken at 15 minute intervals from the serosal fluid compartments for a 135-minute flux period. Omeprazole and/or DMSO were added to their respective tissues 75 minutes after the addition of the isotope. Radioactivity present in the serosal fluid compartment was measured as a function of time before and after the addition of omeprazole or DMSO.

[2] = human, 50 micromolar
Source text: A portion of this flux is due to damage of the gastric tissue preparation during mounting in the Ussing chambers. To correct for flux due to edge damage, the flux rate was subtracted prior to omeprazole addition from the flux rate after omeprazole addition. However, the added issue of decline in cell viability over the course of any experiment, and its contribution to overall leak, still remains (this is generally observed in the modest decline in transepithelial electrical resistance over experimental running time).

[3] = system: rat gastric corpus mucosa; experiment: Transepithelial electrical resistance and short circuit current in Ussing chambers; conditions: 0.05 mM digoxin, 0.1 mM phenytoin
Experimental: (§1) Water-jacketed reservoirs maintained chamber saline at 37° C.
(§2) In order to confirm stimulation of acid secretion by secretagogue addition and to verify the efficacy of the PPI, mucosal fluid compartment pH was recorded at intervals throughout the experiment with a manual electrode (Denver Instruments, Denver, Colo.). Ag/AgCl voltage and current electrodes were used to measure PD (potential difference) and ISC (short circuit current) approximately every five minutes for the duration of the experiment, as previously described (Hameed et al. (2004) Dig. Dis. Sci., 49:1381-1386), using two single-channel current/voltage clamps (McGrath Research and Technology). Ohm's Law was used to calculate transepithelial electrical resistance across the tissue.
Electrical parameters were monitored throughout the duration of the experiment. Tissues were maintained under open circuit conditions. […] Tissue voltage (potential difference), short circuit current, and transepithelial resistance were recorded approximately every five minutes for the duration of the experiment, by passing a one-second current pulse equal to biological current to bring the potential difference to zero using a current/voltage clamp (McGrath Research & Technology). Transepithelial resistance was calculated by dividing open circuit potential difference by short circuit current (Ohm's law).

[4] = system: rat gastric corpus mucosa; assay type: in vitro ADME
Experimental: Additional saline samples were taken from the mucosal and serosal fluid compartments one minute before the addition of omeprazole/DMSO and at the end of the entire flux period to allow for thin-layer chromatography (TLC) analysis of radioactivity that crossed the tissue. TLC was performed to account for the potential contribution of radiolabeled metabolites to total radioactivity crossing the epithelial barrier, in the event of drugs entering gastric epithelial cells and metabolites being effluxed. Saline samples were taken from both surfaces of the tissue to determine possible degradation of the molecule upon exposure to the mucosal surface of the tissue as well as to analyze the chemical nature of the radioactivity that crossed the tissue. […] TLC was performed on silica gel 60 plates (Kodak) by spotting very small amounts of the concentrated sample. Plates were then placed in a sandwich tank and a variety of mobile phases were employed, including butanol/acetic acid/water (120:30:50), isopropanol/water (120:30), and ethyl acetate/methanol/water (81:11:8).

patients = conditions: Wilde et al. (1994); cited from earlier work
healthy controls = experiment: Sucrose leak test before and after five days of omeprazole or famotidine; assay type: in vivo, human
Experimental: An 8 hour overnight urine sample was collected in a container with 5 ml of 10% thymol in isopropanol as antimicrobial preservative. A courier service picked up urine containers at the patient's home and delivered them to the research laboratory. Total urine volume and refractive index were measured and recorded. […] This amount of sucrose equates to the amount of sucrose which leaked from the upper GI lumen.
H-2 blockers such as PEPCID® (famotidine) also cause a GI leak. The instant study was first performed with 20 subjects, all healthy controls. Randomly 10 were put on PPIs (20 mg of omeprazole), 10 on H-2 blockers (40 mg of famotidine). These amounts are standard for acid suppression therapy. […] They were given doses of these drugs in the morning for five days. A sucrose leak test was done the night of the fifth and last day.
Therefore, a second H-2 blocker study was performed looking at leak in an n=5 group but doing evening doses of famotidine and maintaining the other aspects of the above study, with the post H-2 blocker leak test performed again the night of the 5th dose, but now only with a 4-6 hours after the 5th and final dose.

[5] = system: rat gastric corpus mucosa; experiment: Acid secretion (mucosal fluid pH) of dB-cAMP stimulated tissue in Ussing chambers; conditions: Rattus norvegicus; 25 μM omeprazole, plateau; read-out: inhibition of acid secretion (no further decrease in mucosal fluid pH)
Experimental: as §1, §2
Mucosal and serosal saline pH measurements were taken at approximately five minute intervals using a manual electrode (Denver Instruments) to ensure that the tissue was secreting acid. Mucosal pH readings were also taken before and after the addition of omeprazole to document the action of omeprazole on inhibiting acid secretion. Tissue viability was confirmed at the end of each experiment by tissue exposure to 10 mM amiloride in the mucosal fluid compartment in order to inhibit short circuit current.

[6] = Kiley et al. (2007); cited from earlier work
[7] = system: rat gastric corpus mucosa; experiment: Transepithelial flux of 14C-labeled probes (mannitol, sucrose, polyethylene glycol) before and after PPI; conditions: for % Increase in Flux of 14C-[D]-mannitol: 200 μM PPI
Experimental: In each experiment, one adult male Sprague Dawley rat was sacrificed by decapitation. The stomach was removed, flushed, and stripped of its outer serosal membrane, while being frequently moistened with chilled, unbuffered saline. Two pieces of corpus mucosa were mounted in modified Ussing chambers, with exposed tissue surface area of 1.13 cm^2. Chambers were connected to gas-lift reservoirs, with a fluid volume of 17 mL per hemichamber. The mucosal hemichamber was filled with unbuffered saline (with 17 mM glucose) and kept aerated and perfused with 100% O2 at 37° C. […] Water-jacketed reservoirs maintained chamber saline at 37° C.
KRB was adjusted to a pH of 7.3-7.4.
Unbuffered saline was gassed with 100% O2 and was used to bathe the mucosal side of the gastric mucosa.
Approximately 30 minutes after tissues were mounted in Ussing chambers, dibutyrl cyclic AMP (dB-cAMP) (Sigma, St. Louis, Mo.) was added to the serosal sides of both chambers to a concentration of 1 mM in order to stimulate acid output by the tissue.
Three experiments were performed with each PPI, examining gastric permeability to ^14C-mannitol.
Three experiments were performed at each omeprazole concentration.

rat gastric corpus = assay type: in vitro ADME; conditions: omeprazole-treated vs control
Experimental: The numbers provided hereinbelow (Table 6) represent the transepithelial diffusion (mucosal to serosal) of radiolabeled bradykinin. […] It includes only intact bradykinin.
Two data sets from two experiments are provided. These are bradykinin fluxes in picomoles/min/cm^2. One tissue was treated only with DMSO (vehicle control). […] The other tissue (paired pieces of rat gastric corpus) is treated with omeprazole in DMSO. […] The bradykinin leak in controls is likely due to ‘experimental artifact’—in this case mechanical damage of the tissue in handling plus incubation. The increase in flux (leak) of bradykinin seen with DMSO may not be a function of the DMSO at all, but instead simply be a result of tissue ‘breakdown’ over time due to the tissue's very finite lifespan once out of the animal.

In the case of C[C@H]1O[C@@H](O[C@H]2[C@@H](O)C[C@H](O[C@H]3[C@@H](O)C[C@H](O[C@H]4CC[C@@]5(C)[C@H](CC[C@@H]6[C@@H]5C[C@@H](O)[C@]5(C)[C@@H](C7=CC(=O)OC7)CC[C@]65O)C4)O[C@@H]3C)O[C@@H]2C)C[C@H](O)[C@@H]1O [digoxin], the “% Increase in Flux After Omeprazole” value ([1]; 0.05 mM probe, 200 μM omeprazole, P<0.03 vs DMSO) is reported as 82.2%, the “% Increase in Flux After Omeprazole” value ([1]; 0.05 mM probe, 200 μM omeprazole, P<0.03 vs DMSO, listed as 3H-Digoxin) is reported as 82.2% ± 7.7% and the “Post-Omeprazole Flux Value” ([1]; 0.05 mM probe) is reported as 9.4 ± 0.6 ρmole/min/cm^2. For the same compound, the “Pre-Omeprazole Flux Value” ([1]; 0.05 mM probe, 4 experiments) was 5.1 ± 0.2 ρmole/min/cm^2, the “% Increase in Flux After DMSO” value ([1]; 0.05 mM probe) was 50.9% and the “Post-DMSO Flux Value” ([1]; 0.05 mM probe) was 7.2 ± 1.5 ρmole/min/cm^2. The “% Increase in Flux After DMSO” value ([1]; 0.05 mM probe, listed as 3H-Digoxin) was 50.9% ± 7.0%, the “Pre-DMSO Flux Value” ([1]; 0.05 mM probe, 4 experiments) was 4.8 ± 1.0 ρmole/min/cm^2 and the “increase in flux of total radioactivity (tritium) after omeprazole addition” value ([1]; 200 μM omeprazole, not corrected by TLC, SEM) was 84%. The “increase in flux of total radioactivity (tritium), vehicle control” value ([1]; DMSO, not corrected by TLC) was 50%, the “final flux of true 3H-digoxin” value ([1]; in the presence of omeprazole, 0.05 mM digoxin) was “approximately 9 picomoles/min/cm^2” and the “final omeprazole-dependent 3H-digoxin flux” value ([1]; omeprazole flux minus DMSO flux, 4 paired experiments, SEM) was 1.8±0.4 picomoles/min/cm^2. The “total gastric corpus-wide flux” value [2] was 900 picomoles/minute and the “effect of the probe drug itself on transepithelial electrical resistance or short circuit current” value [3] was “not themselves exerting an effect”.
For O=C1NC(=O)C(c2ccccc2)(c2ccccc2)N1 [phenytoin], the “% Increase in Flux After Omeprazole” value ([1]; 0.1 mM probe, 200 μM omeprazole, listed as 14C-Phenytoin) was 54.4% ± 7.7%, the “% Increase in Flux After Omeprazole” value ([1]; 0.1 mM probe, 200 μM omeprazole, listed as 14C-phenytoin) was 54.4% and the “Post-Omeprazole Flux Value” ([1]; 0.1 mM probe) was 119.4 ± 12.9 ρmole/min/cm^2. For the same compound, the “Pre-Omeprazole Flux Value” ([1]; 0.1 mM probe, 3 experiments) was 78.3 ± 11.4 ρmole/min/cm^2, the “% Increase in Flux After DMSO” value ([1]; 0.1 mM probe) was 69.3% and the “Post-DMSO Flux Value” ([1]; 0.1 mM probe) was 120.0 ± 14.7 ρmole/min/cm^2. For the same compound, the “% Increase in Flux After DMSO” value ([1]; 0.1 mM probe, listed as 14C-Phenytoin) was 69.3% ± 13.9%, the “Pre-DMSO Flux Value” ([1]; 0.1 mM probe, 3 experiments) was 71.9 ± 9.8 ρmole/min/cm^2 and the “metabolic breakdown on crossing the gastric mucosa” value [4] was “no metabolic breakdown”. The “co-migration of serosal radioactivity with pure phenytoin standard” value ([4]; male, Sprague Dawley, rat, 0.1 mM) was 100% and the “effect of the probe drug itself on transepithelial electrical resistance or short circuit current” value [3] was “not themselves exerting an effect”.
In the case of COc1ccc2[nH]c([S+]([O-])Cc3ncc(C)c(OC)c3C)nc2c1 (stereo not shown) [omeprazole], the patients with diarrhea (patients) is given as 1-3%, the patients with headache (patients) is given as 0.5-2.4% and the patients with nausea (patients) is given as 0.9-2%. The pre-med sucrose leak (healthy controls; baseline before medication, n=10 per group, SEM) was 42 mg, the “post med sucrose leak” value (healthy controls; morning doses for five days (20 mg omeprazole or 40 mg famotidine), test night of fifth day, n=10) was 212 mg and the inhibition at 25 µM [5] was 100%. The “increase of serum levels of digoxin by omeprazole” value [6] was “more than 350%”, the “% Increase in Flux of 14C-[D]-mannitol” value [7] was 68.72% and the “% Increase in Flux of 14C-[D]-mannitol” value ([7]; listed as Omeprazole) was 68.72 +/− 8.32%. The “effect on transepithelial permeability at low concentrations” value ([7]; 1, 5, or 10 μM omeprazole, 14C-mannitol) was “no significant effect” and the “concentration at which marked transepithelial permeability increase first occurred” value ([7]; 14C-mannitol, 1-200 μM tested, plateau at 100 and 200 μM) was 25 µM.
In the case of CC[C@H](C)[C@@H]1NC(=O)[C@H](Cc2ccc(O)cc2)NC(=O)[C@@H](N)CSSC[C@@H](C(=O)N2CCC[C@H]2C(=O)N[C@@H](CC(C)C)C(=O)NCC(N)=O)NC(=O)[C@H](CC(N)=O)NC(=O)[C@H](CCC(N)=O)NC1=O [oxytocin, Cys-Tyr-Iso-Gln-Asn-Cys-Pro-Leu-Gly], the “leak with omeprazole over control” value (rat gastric corpus) is reported as “not observed”.
